Measured values reported in the CATMoS acute toxicity set (Mansouri et al. 2021).

Experiment: GHS categories as the set defines them, by LD50: 1 up to 5, 2 up to 50, 3 up to 300, 4 up to 2000, 5 above 2000 mg/kg
Conditions: rat; in vivo; po

SMILES	GHS category
Brc1c(Br)c(Br)c(OCCOc2c(Br)c(Br)c(Br)c(Br)c2Br)c(Br)c1Br	5
CCN(CC)C(=O)CCCn1nnnc1C	4
c1ccc(Cn2ccnc2-c2nn[nH]n2)cc1	5
O=C1c2ccccc2C(c2ccc(O)cc2)(c2ccc(O)cc2)N1c1ccccc1	5
O=S(=O)(O)c1cc(Nc2nc(Nc3ccccc3)nc(Nc3ccccc3)n2)ccc1C=Cc1ccc(Nc2nc(Nc3ccccc3)nc(Nc3ccccc3)n2)cc1S(=O)(=O)O	5
CCCCCCC(=O)OC	5
CC(=O)[C@H]1CC[C@H]2[C@@H]3C=CC4=CC(=O)CC[C@@]4(C)[C@@H]3CC[C@]12C	5
CCCCCC(O)CC (stereo not given)	5
CC1(C)C2CC[C@]3(C)C(CC=C4[C@H]5C[C@](C)(C(=O)O)CC[C@]5(C)CC[C@]43C)[C@@]2(C)CC[C@@H]1OC(=O)C=CC(=O)O (stereo not given in full)	5
CCOCCOCCOC(=O)C1CCC(C(=O)OCCOCCOCC)CC1 (stereo not given)	5
CON(C)C(=O)Nc1cc(C(C)(C)C)ns1	4
CCN(C)c1cc(=O)c2c(ccc3ccccc32)o1	4
COc1cc(OC)nc(N=C(O)NS(=O)(=O)c2c(Cl)nc3ccccn23)n1	5
CCC1(CC)COC(Cn2cncn2)(c2cc3ccccc3o2)OC1	4
CCOC(=O)C1CCC(C(=O)OCC)CC1 (stereo not given)	5
CCCCCCCCCCCCCCC	5
CCCCOC(=O)c1ccc(-n2nc(OC)c3ccccc32)cc1	5
Nc1ccc(C2(c3ccc(N)c(Cl)c3)c3ccccc3-c3ccccc32)cc1Cl	5
CCC(C)CCCC(C)CCCC(C)C (stereo not given)	5
CCCNC(=O)C(Cc1ccc(OCCN(CC)CC)cc1)NC(=O)c1ccccc1 (stereo not given)	4
FC(F)(F)c1cccc(C2=CCN(CCc3ccc4ccccc4c3)CC2)c1	4
CC(=O)OC1CN(C)C(=O)N1c1cc(C(C)(C)C)on1 (stereo not given)	4
O=C=Nc1cccc2c(N=C=O)cccc12	5

SMILES	GHS category
CO[C@@]1(NC(=O)C2SC(=C(C(N)=O)C(=O)O)S2)C(=O)N2C(C(=O)O)=C(CSc3nnnn3C)CS[C@@H]21 (stereo not given in full)	5
Cc1c(C)c2c(c(C)c1OC(=O)CCC(=O)O)CC[C@@](C)(CCC[C@H](C)CCC[C@H](C)CCCC(C)C)O2	5
CCCc1c(Cc2ccc(-c3ccccc3-c3nn[nH]n3)cc2)c(=O)nc2nc(CC)[nH]n12	4
CCCCCCCCCCCC(=O)OCC(C)O (stereo not given)	5
O=C(Nc1ccc(Cl)cc1C(O)c1ccccc1)c1ccncc1 (stereo not given)	5
CC(C)CCCCCCCOCCCNCCCN	3
CCCCCCCCCCCCCCCC(=O)Nc1cc(Cl)c(CC)c(Cl)c1O	5
Cc1nc(NS(=O)(=O)c2ccc(N)cc2)oc1C	5
Oc1c(-c2[nH]c3ccccc3c2O)[nH]c2ccccc12	5
OC1CCC(N2CCCCC2)CC1 (stereo not given)	5
CC(=O)c1ccc(S(=O)(=O)NC(=O)NC2CCCCC2)cc1	5
CCC(C(=O)NC(N)=O)c1ccccc1 (stereo not given)	5
CCCCCCCCCCCCCCOc1ccc(C(=O)O)o1	5
C[Si](Cl)(Cl)c1ccccc1	3
CC1(C)CC2(CC(C)(C)c3ccc(O)cc32)c2cc(O)ccc21	5
Nc1c(/N=N/c2ccc(S(=O)(=O)CCOS(=O)(=O)O)cc2)c(S(=O)(=O)O)cc2cc(S(=O)(=O)O)c(/N=N/c3ccc(S(=O)(=O)CCOS(=O)(=O)O)cc3)c(O)c12	5
CN(C(=O)CNCP(=O)(O)O)S(C)(=O)=O	2
CC12CCCC(O)(C1)C1CC(C)(C)C1CC2 (stereo not given)	5
CCOP(=O)(CC(=O)Nc1cc2c(Nc3ccc(F)c(Cl)c3)ncnc2cc1O[C@H]1CCOC1)OCC	5
CC(=O)Nc1c(I)c(NC(C)=O)c(I)c(C(=O)O)c1I	5
CCCOC(C)OCCc1ccccc1 (stereo not given)	5
CC1Oc2cc(C(=O)c3ccccc3)ccc2N(C)C1=O (stereo not given)	5
